The source of these data is patent US6060462A, “Electrophilic peptide analogs as inhibitors of trypsin-like enzymes” (DuPont Pharmaceuticals Company, priority 1997, dated 2000).

One assay deals with T1, human factor Xa (Homo sapiens, UniProt P00742).
T1 construct: 0.2-0.5 nM human thrombin or human factor Xa; purchased Enzyme Research Laboratories, South Bend, Ind
In words: Inhibition of Factor Xa hydrolysis of chromogenic substrate S2222 (Ki). Format: biochemical. The following applies: purified human factor Xa, 0.10 M sodium phosphate buffer. Summed up: (§1)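 Purified human proteases hydrolysed chromogenic substrates (thrombin S2238, Xa S2222, VIIa S2288), followed at 405 nm. Thrombin/Xa buffer: 0.10 M sodium phosphate pH 7.5, 0.20 M NaCl, 0.5% PEG 8000; VIIa: 0.05 M Tris pH 7.6, 0.10 M NaCl, 4 mM CaCl2, 0.1% BSA. Ki from velocities at 25–30 min.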

Assay [1] concerns the target T2, human thrombin (Homo sapiens, UniProt P00734). In words: Inhibition of thrombin hydrolysis of chromogenic substrate S2238 (Ki). It is filed as biochemical. Further details: 0.2-0.5 nM human thrombin or human factor Xa; purchased Enzyme Research Laboratories, South Bend, Ind. The conditions noted are these: purified human thrombin, 0.10 M sodium phosphate buffer, pH 7.5, read-out: Ki values for inhibition of Serine Proteases: Trombin. The method, boiled down: as §1

Another assay has as its target T3, human factor VIIa (Homo sapiens, UniProt P08709).
T3 construct: 50 nM human factor VIIa (BiosPacific, Emeryville, Calif.); purchased BiosPacific, Emeryville, Calif
T3 sequence (P08709 213-466 limits assumed): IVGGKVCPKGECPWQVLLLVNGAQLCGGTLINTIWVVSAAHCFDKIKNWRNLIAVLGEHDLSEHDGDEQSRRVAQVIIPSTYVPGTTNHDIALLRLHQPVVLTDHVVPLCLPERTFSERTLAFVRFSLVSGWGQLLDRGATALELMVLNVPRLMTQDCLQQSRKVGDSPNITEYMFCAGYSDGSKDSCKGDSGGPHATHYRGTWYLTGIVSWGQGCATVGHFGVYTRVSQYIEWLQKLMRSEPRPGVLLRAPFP
T3 sequence (P08709 61-212 partner limits assumed): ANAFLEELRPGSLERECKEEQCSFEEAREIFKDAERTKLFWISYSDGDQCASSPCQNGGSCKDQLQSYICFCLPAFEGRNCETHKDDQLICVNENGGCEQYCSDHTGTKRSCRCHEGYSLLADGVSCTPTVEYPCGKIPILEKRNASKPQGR
Kind of assay: Inhibition of Factor VIIa hydrolysis of chromogenic substrate S2288 (Ki). It is filed as biochemical. The conditions noted are these: purified human factor VIIa, 0.05 M tris buffer, pH 7.6, read-out: Ki values for inhibition of Serine Proteases: Factor VIIa. The method, boiled down:
as §1

The subject of another assay is Thrombin time. In words: Thrombin time (IC50), Table 80.
Another assay deals with thrombin. The conditions noted are these: literature value; cited from earlier work.
Assay [2] has as its target T2, human thrombin. The conditions noted are these: literature value; cited from earlier work.
The mark [3] stands for this setting: pH 7.5, read-out: Ki values for inhibition of Serine Proteases: Factor Xa.

Structures can show the parent of a compound that is named as a salt. Where two headings read alike, the source gives them in different places. Bounds are passed on as bounds.

T1 sequence (P00742 235-488 limits assumed): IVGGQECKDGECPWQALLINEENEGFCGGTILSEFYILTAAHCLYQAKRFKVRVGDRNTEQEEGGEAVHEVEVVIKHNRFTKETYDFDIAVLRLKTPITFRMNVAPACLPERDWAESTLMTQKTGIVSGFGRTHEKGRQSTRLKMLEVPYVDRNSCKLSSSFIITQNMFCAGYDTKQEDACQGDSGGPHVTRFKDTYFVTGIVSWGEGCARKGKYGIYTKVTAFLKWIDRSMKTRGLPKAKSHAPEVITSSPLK
T1 sequence (P00742 41-179 partner limits assumed): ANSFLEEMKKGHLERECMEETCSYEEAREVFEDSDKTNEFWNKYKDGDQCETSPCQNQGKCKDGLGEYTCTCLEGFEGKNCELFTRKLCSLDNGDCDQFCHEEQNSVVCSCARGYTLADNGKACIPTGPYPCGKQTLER

Take “2-(Thiophenyl)-Benzoyl-Sar-boroOrn(CH=NH)-C10H16 HCl [Example 63.4.1]”: the Ki at human factor Xa (setting [3]) is below 500 nM; at human thrombin [1], below 500 nM; on human factor VIIa, below 50000 nM. For the same compound, in the assay with Thrombin time, the IC50 was below 500 nM.

On to “2-Benzyl-(N-Benzyl)-Sar-boroLys--C10 H16 HCl [Example 64.1.1]”, for which the Ki is below 50000 nM on human factor Xa (setting [3]), below 500 nM on human thrombin [1] and below 50000 nM on human factor VIIa. In addition, the “IC50 Thrombin time” value with Thrombin time is “Inactive”.

Consider “2-Thiophenyl-Benzoyl-Sar-boroLys(CH=NH)-C10H16 [Example 63.4.2]”, for which the Ki at human factor Xa (setting [3]) was below 500 nM; at human thrombin [1], below 500 nM; on human factor VIIa, below 50000 nM. The IC50 with Thrombin time is below 50000 nM.

Regarding `N#CC(CCCNC(=N)N)NC(=O)[C@@H]1CCCN1C(=O)[C@H](N)Cc1ccccc1` (stereo partly drawn) [D-phenylalanyl-prolyl-NHCH((CH2)3 NHC(=NH)NH2)--CN], the Ki at thrombin was 700 nM.

For the compound `N=C(N)NCCC[C@@H](C=O)NC(=O)[C@@H]1CCCN1C(=O)[C@H](N)Cc1ccccc1` [D-phenylalanyl-prolyl-arginal], the Ki at human thrombin [2] was 75 nM.

As to `N=CNCCCC(NC(=O)CN(CCc1ccccc1)C(=O)CCc1ccccc1)B(O)O` (stereo not shown) [Example 49.1.3, Hydrocinnamoyl-[N-(Phenethyl)-Gly]-boroOrn(CH=NH)--OH HCl], the Ki at human factor Xa (setting [3]) and at human thrombin [1] was below 500 nM throughout. Further, the IC50 in the assay on Thrombin time was below 500 nM.

Regarding `CN=C(N)NCCCC(NC(=O)CN(CCc1ccccc1)C(=O)CCc1ccccc1)B1OC2CC3CC(C3(C)C)C2(C)O1` (stereo not shown) [Example 49.2.1, Hydrocinnamoyl-[N-(Phenethyl)-Gly]-boroArg(CH3)-C10H16 HCl], the Ki at human factor Xa (setting [3]) and at human thrombin [1] was below 500 nM each time. In the assay on Thrombin time, this compound displayed an IC50 below 50000 nM.

On to `Cc1cccc(CCN(CC(=O)NC(CCCCN)B(O)O)C(=O)CCc2ccccc2)c1` (stereo not shown) [Example 52.1.2, Hydrocinnamoyl-[N-(3-methylphenethyl)-Gly]-boroLys--OH hydrochloride salt], for which the values for the Ki on human factor Xa (setting [3]), at human thrombin [1] and at human factor VIIa were below 500 nM, below 500 nM and below 50000 nM, respectively. In the assay with Thrombin time, the IC50 is below 500 nM.

On to `CC(C)(CN(CC(=O)NC(CCCCN)B(O)O)C(=O)CCc1ccccc1)c1ccccc1` (stereo not shown) [Example 53.1.1, Hydrocinnamoyl-[N-(2,2-dimethyl)-phenethyl-Gly]-boroLys--OH hydrochloride salt], for which the Ki was below 500 nM on human factor Xa (pH 7.5, hydrochloride salt, read-out: Ki values for inhibition of Serine Proteases: Factor Xa); below 500 nM on human thrombin [1]; below 500 nM on human factor VIIa. In the assay with Thrombin time, this compound displayed an IC50 below 500 nM.

On to `NCCCCC(NC(=O)CN(CCc1ccccc1C1CC1)C(=O)CCc1ccccc1)B(O)O` (stereo not shown) [Example 53.1.2, Hydrocinnamoyl-[N-(2-(Cyclopropyl)-Phenethyl)-Gly]-boroLys--OH HCl], for which the Ki on human factor Xa (setting [3]), on human thrombin [1] and at human factor VIIa was below 500 nM throughout. Besides, the IC50 in the assay on Thrombin time is below 500 nM.

On to `CC1(C)C2CC3OB(C(CCCCN)NC(=O)CN(CCc4ccccc4C4CC4)C(=O)CCc4ccccc4)OC3(C)C1C2` (stereo not shown) [Example 54.1.2, Hydrocinnamoyl-[N-(2-(Cyclopropyl)-Phenethyl)-Gly]-boroLys-C10H16 HCl], for which the Ki at human factor Xa (setting [3]) was below 50000 nM; at human thrombin [1], below 500 nM; at human factor VIIa it was below 500 nM. Further, the IC50 with Thrombin time was below 500 nM.

Turning to `CC1(C)C2CC3OB(C(CCCCN)NC(=O)CN(C(=O)CCc4ccccc4)C4CC4)OC3(C)C1C2` (stereo not shown) [Example 54.4.2, Hydrocinnamoyl-[N-(Cyclopropyl)-Gly]-boroLys-C10H16 HCl], the Ki at human factor Xa (setting [3]) was below 50000 nM; on human thrombin [1], below 500 nM; on human factor VIIa, below 500 nM. Also, the IC50 in the assay on Thrombin time was below 500 nM.

As for `CC1(C)C2CC3OB(C(CCCCN)NC(=O)CN(C(=O)CCc4ccccc4)C4CCCCC4)OC3(C)C1C2` (stereo not shown) [Example 54.4.3, Hydrocinnamoyl-[N-(Cyclohexyl)-Gly]-boroLys-C10H16 HCl], the Ki was below 50000 nM at human factor Xa (setting [3]), below 500 nM at human thrombin [1] and below 500 nM on human factor VIIa. The compound also registered an IC50 in the assay on Thrombin time below 50000 nM.

On to `NCCCCC(NC(=O)CN(C(=O)CCc1ccccc1)C1CC1)B(O)O` (stereo not shown) [Example 59.4.2, Hydrocinnamoyl-[N-(Cyclopropyl)-Gly]-boroLys--OH HCl], for which the Ki at human factor Xa (setting [3]) was below 50000 nM; on human thrombin [1] it was below 500 nM. For the same compound, in the assay with Thrombin time, the IC50 is below 500 nM.

Take `CN(CC(=O)NC(CCCCN)B1OC2CC3CC(C3(C)C)C2(C)O1)C(=O)c1ccccc1Sc1ccccc1C#N` (stereo not shown) [Example 62.4.3, (2-(2-Cyano)-Thiophenyl)-Benzoyl-Sar-boroLys-C10H16 HCl]: the results for the Ki on human factor Xa (setting [3]), at human thrombin [1] and on human factor VIIa were below 500 nM, below 500 nM and below 50000 nM, respectively. In the assay with Thrombin time, this compound displayed an IC50 below 50000 nM.

With `NCCCCC(NC(=O)CN(CCc1ccccc1)C(=O)CCCC(=O)O)B(O)O` (stereo not shown) [Example 66.1.1, Glutaryl-[N-(Phenethyl)-Gly]-boroLys--OH HCl], the Ki on human factor Xa (setting [3]) was below 500 nM; on human thrombin [1] it was below 500 nM; at human factor VIIa, below 50000 nM. Further, the IC50 with Thrombin time was below 50000 nM.

As for `COC(=O)CCC(=O)N(CCc1ccccc1)CC(=O)NC(CCCCN)B(O)O` (stereo not shown) [Example 68.3.3, Methyl Succinyl-[N-(Phenethyl)-Gly]-boroLys--OH HCl], the results for the Ki on human factor Xa (setting [3]), at human thrombin [1] and at human factor VIIa were below 50000 nM, below 500 nM and below 50000 nM, respectively. Besides, in the assay with Thrombin time, the IC50 was below 50000 nM.

Regarding `COC(=O)CCCC(=O)N(CCc1ccccc1)CC(=O)NC(CCCCN)B(O)O` (stereo not shown) [Example 68.4.1, Methyl Glutaryl-[N-(Phenethyl)-Gly]-boroLys--OH HCl], the Ki on human factor Xa (setting [3]) was below 500 nM; at human thrombin [1] it was below 500 nM; at human factor VIIa, below 50000 nM. In the assay with Thrombin time, this compound showed an IC50 below 50000 nM.

On to `CC1(C)C2CC3OB(C(CCCCN)NC(=O)CN(CCc4ccccc4)C(=O)CCCC(=O)O)OC3(C)C1C2` (stereo not shown) [Example 69.1.1, Glutaryl-[N-(Phenethyl)-Gly]-boroLys-C10H16], for which the Ki at human factor Xa (setting [3]) was below 500 nM; at human thrombin [1] it was below 500 nM; at human factor VIIa, below 50000 nM. This compound gave a half-maximal inhibitory concentration (IC50) in the assay with Thrombin time below 50000 nM.

`CC1(C)C2CC3OB(C(CCCCN)NC(=O)CN(CCc4ccccc4)C(=O)CNS(C)(=O)=O)OC3(C)C1C2` (stereo not shown) [Example 69.3.2, Methanesulfonyl-Gly-[N-(Phenethyl)-Gly]-boroLys-C10H16 HCl]: the Ki on human factor Xa (setting [3]), on human thrombin [1] and at human factor VIIa was below 500 nM throughout. Further, the IC50 in the assay with Thrombin time is below 500 nM.

Consider “Hydrocinnamoyl-Sar-Lys[CH(OH)(OCH3)--C(=O)--OCH3] HCl [Example 61.4.1]”, for which the Ki at human factor Xa (setting [3]) was below 50000 nM; at human thrombin [1], below 500 nM; on human factor VIIa it was below 50000 nM. Also, the IC50 in the assay on Thrombin time was below 50000 nM.

For “Hydrocinnamoyl-[N-(Cyclopropyl)-Gly]-boroOrn(CH=NH)--OH HCl [Example 57.4.2]”, the figures for the Ki at human factor Xa (setting [3]) and at human thrombin [1] were below 50000 nM and below 500 nM, respectively. In addition, the IC50 in the assay with Thrombin time was below 500 nM.

In the case of “Methanesulfonyl-Gly-[N-(N-(Methyl)-Benzyl)-Gly]-boroLys--OH HCl [Example 66.3.2]”, the Ki on human factor Xa (setting [3]), on human thrombin [1] and on human factor VIIa was below 500 nM each time. In addition, the IC50 in the assay on Thrombin time was below 500 nM.
